What was measured:
[1] = target: T1, UDP-glucuronosyltransferase 2B17 (Homo sapiens, UniProt O75795); assay: Activity of human UGT2B17 expressed in microsomes isolated from baculovirus infected insect cell assessed as enzyme-mediated 2-mercapto-3-(4-((6-methoxy-1-methyl-1H-benzo[d]imidazol-2-yl)methoxy)phenyl)propanoic acid formation at 20 uM after 4 hrs by radio-HPLC/LC-MS/MS analysis in presence of UDPGA; format: ADME
T1 sequence (O75795 whole entry): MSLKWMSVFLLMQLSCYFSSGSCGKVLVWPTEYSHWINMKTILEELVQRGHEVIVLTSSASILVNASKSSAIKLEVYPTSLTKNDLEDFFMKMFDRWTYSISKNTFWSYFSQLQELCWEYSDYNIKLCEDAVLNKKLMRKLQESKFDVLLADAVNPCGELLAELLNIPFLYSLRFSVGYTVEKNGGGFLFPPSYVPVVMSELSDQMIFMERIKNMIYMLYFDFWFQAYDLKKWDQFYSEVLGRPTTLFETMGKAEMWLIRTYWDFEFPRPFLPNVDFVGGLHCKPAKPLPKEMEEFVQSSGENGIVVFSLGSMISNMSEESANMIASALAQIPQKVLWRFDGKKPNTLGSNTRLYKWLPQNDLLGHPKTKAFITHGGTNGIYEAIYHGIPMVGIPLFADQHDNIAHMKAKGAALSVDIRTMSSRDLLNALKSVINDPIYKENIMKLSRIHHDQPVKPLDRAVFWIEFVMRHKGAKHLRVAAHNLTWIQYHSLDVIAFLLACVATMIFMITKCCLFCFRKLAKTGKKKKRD

[2] = Drug metabolism in human hepatocytes assessed as formation of 3-(4-((6-methoxy-1-methyl-1H-benzo[d]imidazol-2-yl)methoxy)phenyl)-2-(methylthio)propanamide at 30 uM after 3 hrs by radio-HPLC/LC-MS/MS analysis in presence of NADPH-generating system/SAM; format: ADME, cell-based, Hepatocyte
[3] = Drug metabolism in cynomolgus monkey liver microsomes assessed as formation of 3-(4-((6-methoxy-1-methyl-1H-benzo[d]imidazol-2-yl)methoxy)phenyl)-2-(methylsulfonyl)propanamide at 20 uM after 2 hrs by radio-HPLC/LC-MS/MS analysis in presence of NADPH-generating system/SAM; format: ADME, Macaca fascicularis
[4] = target: T1, UDP-glucuronosyltransferase 2B17; assay: Activity of human UGT2B17 expressed in microsomes isolated from baculovirus infected insect cell assessed as enzyme-mediated (2S,3S,4S,5R,6R)-3,4,5-trihydroxy-6-(5-(4-((6-methoxy-1-methyl-1H-benzo[d]imidazol-2-yl)methoxy)benzyl)-2,4-dioxothiazolidin-3-yl)tetrahydro-2H-pyran-2-carboxylic acid formation at 20 uM after 4 hrs by radio-HPLC/LC-MS/MS analysis in presence of UDPGA; format: ADME
[5] = target: T2, Cytochrome P450 1A2 (Homo sapiens, UniProt P05177); assay: Activity of human CYP1A2 expressed in microsomes isolated from baculovirus infected insect cell assessed as enzyme-mediated 3-(4-((6-methoxy-1-methyl-1H-benzo[d]imidazol-2-yl)methoxy)phenyl)-2-(methylthio)propanamide formation at 20 uM after 2 hrs by radio-HPLC/LC-MS/MS analysis in presence of NADPH-generating system/SAM; format: ADME
T2 sequence (P05177 whole entry): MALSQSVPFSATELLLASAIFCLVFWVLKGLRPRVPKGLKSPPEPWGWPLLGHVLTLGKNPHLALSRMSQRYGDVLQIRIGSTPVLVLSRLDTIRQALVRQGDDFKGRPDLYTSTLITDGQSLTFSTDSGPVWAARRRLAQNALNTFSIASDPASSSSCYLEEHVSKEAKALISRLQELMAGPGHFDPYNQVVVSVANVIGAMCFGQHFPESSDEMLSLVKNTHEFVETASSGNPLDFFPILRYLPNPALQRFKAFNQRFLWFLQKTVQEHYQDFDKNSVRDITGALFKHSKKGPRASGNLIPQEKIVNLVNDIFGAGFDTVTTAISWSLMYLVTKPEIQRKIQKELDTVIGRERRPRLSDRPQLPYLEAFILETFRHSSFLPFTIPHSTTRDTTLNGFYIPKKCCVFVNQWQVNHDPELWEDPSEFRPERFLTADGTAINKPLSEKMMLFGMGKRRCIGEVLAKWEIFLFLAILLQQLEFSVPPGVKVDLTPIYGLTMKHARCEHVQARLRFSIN

[6] = system: Liver microsome; assay: Drug metabolism in human liver microsomes assessed as formation of 5-(4-((6-methoxy-1H-benzo[d]imidazol-2-yl)methoxy)benzyl)thiazolidine-2,4-dione at 20 uM after 2 hrs by radio-HPLC/LC-MS/MS analysis in presence of NADPH-generating system and NADPH-generating system/SAM; format: ADME

- Drug metabolism [1]: metabolite_not_detected
- Drug metabolism [2]: metabolite_detected
- Drug metabolism [3]: metabolite_detected
- Drug metabolism [4]: metabolite_not_detected
- Drug metabolism [5]: metabolite_not_detected
- Drug metabolism [6]: metabolite_detected
SMILES: COc1ccc2nc(COc3ccc(C[14CH]4SC(=O)NC4=O)cc3)n(C)c2c1.Cl (racemic)
